From patent US20230125075A1, “Composition Containing Paper Mulberry Extracts” (LG Household & Health Care Ltd., priority 2020, published 2023) come the findings set out here.

Where “and” joins values, the source holds several entries; their conditions need not be identical. Equal values may be shown once.

The nature of one data set: in vitro. The conditions noted are these: human. The method, then:
(§1) First, HepG2 cells were cultured at 37° C. under 5% CO2 atmosphere in a DMEM culture medium containing 10% FBS. Then, the cultured HepG2 cells were seeded on a 24-well plate at a cell density of 3×10^5 cells/well, followed by incubation for 1 day. Then, various concentrations of test substances were added to HepG2 cells, followed by incubation for 24 hours.
(§2) An MTT solution dissolved in PBS at a concentration of 5 mg/mL was diluted to 10% with the culture medium. The solution was dispensed in a volume of 0.5 to 1.0 mL in a 24-well plate and incubated for 4 hours in an incubator.
(§3) After 4 hours of incubation, the culture medium containing the MTT solution was removed, and 1 mL of DMSO was added and was shaken for 10 minutes. Then, absorbance was measured at 540 nm. At this time, as positive controls, the cells were treated with (1) 100 mM ethanol and (2) 100 mM ethanol+100 ppm Silymarin, respectively.
(§4) As a result of the experiment, liver cell viability was quantified. That is, as liver cell viability increases, the liver health improvement effect increases.
(§5) As the absorbance value increases, liver cell viability increases.

In a further data set the test system is HepG2 cells. Put plainly: in vitro. The conditions noted are these: human, 24 h, 100 mM. The method, then:
as §1, §2, §3, §4, §5

The test system of data set [1] is THP-1 cells and NK-92 cells. The experiment in a line: Interferon gamma (IFN-γ) production, ELISA. In kind it is cell-based. The conditions noted are these: positive control. The method, then:
To confirm the immune function improvement effect of the plant extracts, the amount of interferon gamma produced in […] and macrophages was measured. First, THP-1 cells, which are macrophages, and NK-92 cells, which are natural killer cells, were suspended in an RPMI (Roswell Park Memorial Institute)-1640 culture medium (for THP-1 cells) and a MEMA (Minimum Essential Media Alpha) culture medium (for NK-92 cells), respectively. The suspended cells were seeded on culture plates (24 wells/96 wells). The plant extracts (sample) diluted to various concentrations were added to the cells. At this time, lipopolysaccharide (LPS) (0.1 to 1 μg/mL) was used as a positive control. The sample-treated cells were placed in a 5% CO2 incubator set to 37° C. and incubated for 24 to 48 hours. Then, the supernatant was taken and used as an analysis sample.
The experiment was performed using an enzyme-linked immunosorbent assay (ELISA) method. After coating a 96-well plate with an IFN-γ primary antibody, 1% bovine serum albumin (BSA) was added to block the remaining space. Then, distilled water (blank), an IFN-γ standard solution, and each sample were added to the wells in an amount of 100 μl and incubated at room temperature for 2 hours. 100 μl of a biotin-bound IFN-γ secondary antibody was added to the wells and incubated at room temperature for 2 hours. 100 μl of avidin-bound horseradish peroxidase (HRP) was added and incubated at room temperature or 37° C. for 30 minutes. 100 μl of a TMB substrate solution was added and incubated at room temperature for 4 to 14 minutes. 50 μl of a stop solution (sulfuric acid) was added to stop the reaction. Absorbance at 450 nm wavelength was measured using an ELISA reader. The IFN-γ content of each sample was calculated based on the absorbance of the standard solution.
In this experiment, the effect of the plant extracts on production of interferon gamma was confirmed. As a result of the experiment, the amount of interferon gamma was quantified. As the level of interferon gamma increases, the degree of improvement in immune function increases.
The absorbance is proportional to the IFN-γ content. In addition, increase in IFN-γ production means that immunity is enhanced, such as promotion of differentiation of T lymphocytes, activation of macrophages, and promotion of production of IgG antibodies in B cells.

Turning to `CCO` [Ethanol], in “in vitro”, the viability – broadly, a read-out of living cells in per cent, often relative to untreated cells – at 24 h, 100 mM is 68.2%. The “Liver health-Cell viability (% of control)” value with HepG2 cells is listed as 68.25 (Ethanol % of control.
On to lipopolysaccharide [LPS], for which, in data set [1] (1 ppm), the Immunity-IFNg secretion is reported as 964.24 % of control; the “Immunity-IFNg secretion (% of control)” value was 964.24 % of control and 964.24 (LPS % of control. For the same compound, in data set [1] (LPS 1 ppm), the Immunity-IFNg secretion is on record as 964.24 % of control and the “Immunity-IFNg secretion (% of control)” value is 964.24 % of control.
